Results from article PMC9645390, “Amphiphilic stilbene derivatives attenuate the neurotoxicity of soluble Aβ42 oligomers by controlling their interactions with cell membranes” (Chemical Science, 2022).

Assays:
[1] = target: T1, Aβ plaques in 5xFAD mice brain sections (Homo sapiens, UniProt P05067); experiment: Fluorescence imaging of 5xFAD mouse brain sections, colocalization with Congo Red; settings: 9-month-old 5xFAD brain sections; compound 5 μM, Congo red 2.5 μM
T1 construct: aggregated Aβ species were commonly observed in brain sections from 5xFAD transgenic mice; tissue Jackson Laboratories; host or cells: brain sections of 9-month-old 5xFAD transgenic mice
Description: In order to confirm that the compounds can also bind to native Aβ species, brain sections collected from 9-month-old 5xFAD transgenic mice have been employed in the fluorescence imaging studies. […] The brain sections were first incubated with our compounds, followed by Congo Red (CR), which is a well-established fluorescent probe that can bind to Aβ plaques.[34] The treated brain sections were then imaged using fluorescence microscope. […] Immunostaining with the CF594-conjugated HJ 3.4 antibody (CF594-HJ3.4) was also performed to confirm that these six compounds can bind to Aβ species specifically in the brain sections (Fig. 5). Moreover, the log D values of the compounds were also measured by octanol-PBS partition assays.[35]
Fig. 4 Fluorescence microscopy images of 5xFAD mice brain sections co-incubated with amphiphilic compounds (top), Congo red (middle) and merged images (bottom, along with the Parson's correlation coefficients R). Concentrations: [amphiphilic compounds] = 5 μM, [Congo red] = 2.5 μM; scale bar: 125 μm. TEXT PRINTED IN THE PICTURE: ZY-5-MT: Merged R= 0.84 | ZY-12-DT: Merged R= 0.52 | ZY-12-OMe: Merged R= 0.77 | ZY-15-OMe: Merged R= 0.77 | ZY-17-DT: Merged R= 0.77 | ZY-17-OMe: Merged R= 0.72 […]
Histological Staining of 5×FAD Mice Brain Sections
5xFAD transgenic mice brain sections were blocked with bovine serum albumin (2% BSA in PBS, pH 7.4, 10 min). Then the mice brain sections were transferred to a PBS solution of the compound and incubated for 1 h. After which, the brain sections were transferred to a PBS solution of Congo Red or antibody HJ 3.4 (Professor David Holtzman, 1 μg/ml) and incubated for another 1 h. Then, the brain sections were treated with BSA again (5 min) followed by washing with PBS (3 × 2 min), DI water (3 × 2 min). Finally, the mice brain sections were mounted with non-fluorescent mounting media, and the images were obtained by using EVOS FL Auto 2. ImageJ Fiji program was used for colocalization analysis and determination of the Pearson’s correlation coefficient. The primary

[2] = tested on: Cu2+–Aβ42 species in Neuro2A cells; experiment: Cu2+-Aβ42-induced toxicity in Neuro2A cells (Alamar Blue); type: cell-based, mouse; settings: [Aβ42] = [Cu2+] = 40 μM, compound 10 μM (ZY-12-OMe 5 μM), 40 h
Description: As mentioned above, compounds that are not cytotoxic at 10 μM, including ZY-12-MT, ZY-15-MT, ZY-15-OMe, ZY-17-MT, ZY-5-MT, ZY-5-DT, ZY-5-OMe, and ZY-12-OMe, were chosen for this study. Firstly, during the control studies, we observed that monomeric Aβ42 led to negligible neurotoxicity. Nevertheless, in the presence of both Cu^2+ and monomeric Aβ42, there was a significant cell death, which is likely due to the Cu^2+ associated neurotoxic Aβ42 oligomers formation.[46] […] According to the docking results, ZY-12-MT, ZY-15-OMe, ZY-15-MT, and ZY-5-OMe interact with Aβ42 tetramers mainly through residues His6, Asp7, Tyr10 (via hydrogen bonds), and Tyr10 (via π–π interactions). Some reports have also shown that His6, Asp7, and Tyr10 are potentially involved in the Cu–Aβ interactions, which explains why the compounds are able to attenuate the Cu–Aβ toxicity.[48]
Fig. 9 Cell viability results upon incubation of Neuro2A cells with monomeric Aβ42 in the presence or absence of metal ions and amphiphilic compounds. Concentrations: [Aβ42] = 40 μM, [Cu^2+] = 40 μM, [ZY-12-MT] = [ZY-15-OMe] = [ZY-15-MT] = [ZY-17-MT] = [ZY-5-OMe] = [ZY-5-MT] = [ZY-5-DT] = 10 μM, [ZY-12-OMe] = 5 μM. The error bars represent the standard deviation from five independent experiments, and the statistical analysis was evaluated according to one-way ANOVA (*p < 0.05).
Alamar Blue assay was chosen for the cytotoxicity studies.3 Mouse neuroblastoma Neuro2A (N2A) cells were grown with DMEM/10% FBS in a petri dish at 37 °C in a humidified atmosphere with 5% CO2. Then N2A cells were seeded in a 96-well plate (1.0 × 10^4/well). After 24 h incubation, cell media was changed to DMEM/N-2, and N2A cells were incubated for another 1 h. […]
(§1) For the Cu2+-Aβ-induced toxicity studies, cells were treated monomeric Aβ42, Cu2+, monomeric Aβ42 + Cu2+, and monomeric Aβ42 + Cu2+ + compounds, monomeric Aβ42 + Cu2+ + copper chelators (Me2HTACN or Me3TACN), respectively. After 40 h incubation, Alamar Blue solution (10 μL) was added, and the cells were incubated for another 90 min at 37 °C. The fluorescence intensity of each well was measured at 590 nm (excitation wavelength = 560 nm). […]
10. The effect of copper chelators on Cu2+-Aβ42 neurotoxicity
Figure S8. Cell viability results upon incubation of Neuro2A cells with 10 μM copper chelators (Me2HTACN or Me3TACN) in the presence or absence of 40 μM (Aβ42 + Cu2+). The error bars represent the standard deviation from five independent experiments, and the statistical analysis was evaluated according to one-way ANOVA. […]

[3] = Alamar Blue cytotoxicity assay in N2a cells; type: cell-based, mouse; settings: mouse, N2a (Neuro2A) neuroblastoma cells, up to 10 μM, 40 h, read-out: cell viability
Description: After confirming these amphiphilic compounds can bind to Aβ species both in vitro and ex vivo, we next investigated whether these compounds could attenuate the toxicity of the Cu–Aβ species, as the Cu^2+ ions were reported to promote the formation of neurotoxic soluble Aβ42 oligomers.[45,46] Firstly, the Alamar Blue cell viability assay was used to measure the cytotoxicity of the compounds at different concentrations ranging from 20 μM to 2 μM in mouse neuroblastoma N2a cells (Fig. 8). […] Considering its high binding affinity to both Aβ fibrils and oligomers, we also further tested its ability to alleviate Cu^2+–Aβ42-induced toxicity. […] The underlying mechanism is unclear, but we propose that these compounds might perform similarly to the toxic oligomers that bind to some cell membrane receptors or insert into the membrane lipids to form porous channels.
Alamar Blue assay was chosen for the cytotoxicity studies.3 Mouse neuroblastoma Neuro2A (N2A) cells were grown with DMEM/10% FBS in a petri dish at 37 °C in a humidified atmosphere with 5% CO2. Then N2A cells were seeded in a 96-well plate (1.0 × 10^4/well). After 24 h incubation, cell media was changed to DMEM/N-2, and N2A cells were incubated for another 1 h. Then the cells were treated with different concentrations of compounds for 40 h, Alamar Blue solution (10 μL) was added, and the cells were incubated for another 90 min at 37 °C. The fluorescence intensity of each well was measured at 590 nm (excitation wavelength = 560 nm).
as §1

T1 sequence (P05067 672-713 limits assumed): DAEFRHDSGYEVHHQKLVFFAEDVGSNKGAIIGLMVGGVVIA

| Pearson's correlation coefficient R, colocalization with Congo Red [1] | SMILES | effect on Cu2+–Aβ42-induced toxicity (cell viability, in words) [2] | viability at 40 h [3] [%] |
| --- | --- | --- | --- |
| 0.72 | COc1cc(OC)cc(-c2ccc(/C=C/c3cc(CN4CCN(C)CCN(C)CC4)c(O)c(OC)c3)cc2)c1 [ZY-17-OMe] |  |  |
| 0.77 | COc1cc(OC)cc(-c2ccc(/C=C/c3cc(CN4CCN(C)CCN(C)CC4)c(O)c(CN4CCN(C)CCN(C)CC4)c3)cc2)c1 [ZY-17-DT] |  |  |
|  | CN1CCN(C)CCN(Cc2cc(-c3ccc(/C=C/c4ccc(N(C)C)cc4)s3)ccc2O)CC1 [ZY-12-MT] | could significantly increase cell viability | > 80 |
|  | COc1cc(/C=C/c2ccc(-c3ccc(N(C)C)cc3)s2)cc(CN2CCN(C)CCN(C)CC2)c1O [ZY-5-OMe] | could significantly increase cell viability | > 80 |
|  | CN1CCN(C)CCN(Cc2cc(/C=C/c3ccc(-c4ccc(C=O)cc4)s3)ccc2O)CC1 [ZY-15-MT] | could significantly increase cell viability | > 80 |

| SMILES | Pearson's correlation coefficient R, colocalization with Congo Red [1] | effect on Cu2+–Aβ42-induced toxicity (cell viability, in words) [2] | viability at 40 h [3] [%] |
| --- | --- | --- | --- |
| COc1cc(/C=C/c2ccc(-c3ccc(C=O)cc3)s2)cc(CN2CCN(C)CCN(C)CC2)c1O [ZY-15-OMe] | 0.77 | could significantly increase cell viability | > 80 |
